In assay [1] the target is T1, Mcl-1 protein (Homo sapiens, UniProt Q07820).
T1 construct: human Mcl-1 (residues 171–323); His tag (pHis-TEV vector) (N, cleaved yes); made in house; host or cells: E. coli BL21 (DE3)
Description: FP-based competitive binding assay with fluorescent labelled Bid BH3 peptide. The conditions noted are these: for IC50: competition with fluorescent Bid probe 2 nM, 20 nM Mcl-1 for purchased compounds, 10 nM for synthesized library; for Ki: calculated from FP IC50. The method, then: (§1) FP-based binding assays were developed and optimized to determine the binding affinities of inhibitors to the recombinant Mcl-1, Bcl-2, Bcl-xL, and Bfl-1, proteins. […] The fluorescent Bid probe was fixed at 2 nM for all assays, except for Bfl-1, where 1 nM was used. 5 μL of the tested compound in DMSO and 120 μL of protein/probe complex in the assay buffer were added to assay plates (Corning #3792), incubated at room temperature for 3 h, and the polarization values (mP) were measured at an excitation wavelength of 485 nm and an emission wavelength of 530 nm using the plate reader Synergy H1 Hybrid, BioTek. IC50 values were determined by nonlinear regression fitting of the competition curves (GraphPad Prism 6.0 Software). The Ki values were calculated as described previously.
(§2) 1. List of compounds purchased from vendors
(§3) Compound s 5, 6, 7, 8 and S3, S4, S5, S6 S7, S8, S9, S10, S17 were purchased from […]
(§4) Compound s 9, 10, 11 and S11, S12, S13 were purchased from I nterbioscreen […]
His-tagged proteins containing human Mcl-1 (residues 171–323), the isoform 2 construct of the human Bcl-2 [Bcl2-2 construct for protein production starts with the Bcl2 sequence of 1-34 a a, followed by the Bcl-xL seq uence of 35-50 aa, and ends with the Bcl-2 sequenc e of 92-202aa.], Bcl-xL (Human Bcl-xL protein, which has an internal deletion for the 45 -85 amino acid residues and a C -terminal truncation for the amino acid residues 212-233), and Bf l-1 (residues 1-151), were expres sed from the pHis -TEV vector (a modified pET vector) in E. coli BL21 (DE3) cells. Cells were grown at 37 °C in 2×YT containing antibiotics to an OD600 density of 1.5, 1 and 0.8 for Mcl-1, Bcl-xL and Bcl-2 respectively. Protein expression wa s induced by 0 .4 mM IPTG at 20 °C overnight for all proteins except for Bf l-1 which was e xpressed at 3 7 °C for four hours . Cells were lysed in 20 mM HEPES pH 7.5, 200 mM NaCl, 0.1% βME with Leupeptin/Aprotinin (Mcl-1), 25mM Tris pH 8.5, 200mM NaCl (Bcl-2), 50mM Tris pH 7.5, 200 mM NaCl (Bcl-xL) and 50 mM Tris pH 8, 500 mM NaCl, 0. 1% βME with Leupeptin/Aprotinin (Bf l-1). All […]
proteins were purified from the soluble fraction using Ni-NTA resin (QIAGEN), following the manufacturer’s instructions. For purification of TEV-cleaved protein, the amino-terminal His tag was cleaved by incubation with TEV protease and the protein was further purified by anion exchange (Source Q) and gel filtration chromatography (Superdex 75, Amersham Biosciences) in 20mM HEPES pH 7.0, 50 mM NaCl (Mcl-1), […]
NaCl, 0.1% βME (Bcl-xL) and 25 mM Tris pH 7.5, 150 mM NaCl, 25% Glycerol, 0.1% βME ( Bf l-1). His-tagged Mcl-1 protein was used for TR-FRET assay and HSQC-NMR.
His-TEV cleaved Mcl-1, Bcl-2, Bcl-xL, and Bf l-1 were used in fluorescent polarization and surface plasmon resonance binding assays.
Mutant Mcl-1 protein wa s prepared by the QuikChange site -directed mutagenesi s method (Stratagene) , where Arg263 was mutated to Ala. The R263A expression pla smid was transformed into Rosetta2 DE3 cells and purified by the same method as the wildtype protein. Cultures were grown to an OD 600 of 1. 5 at 37 °C in Terrific Broth, induced with 0. 4 mM IPTG, and express ed overnight at 20 °C. The follow-up purification was performed the same way as was for Mcl-1 wild-type recombinant

In assay [2] the test system is Mcl-1/Noxa interaction. Further details: method as in PubChem BioAssay AID 1417. The conditions noted are these: Dose Response Confirmation for Mcl-1/Noxa Interaction Inhibitors; ref PubChem BioAssay AID 1417; cited from earlier work.
Assay [3] concerns the target T1, Mcl-1 protein. The experiment in a line: SPR-based solution competitive binding assay, immobilized biotin-labelled Bim BH3 peptide. The conditions noted are these: Mcl-1 20 nM; competition with immobilized Bim BH3 peptide. On the procedure: The solution competitive SPR-based assay was performed on Biacore 2000 in a similar way as was already reported. Briefly, N terminal biotin-labelled Bim BH3 peptide (141–166 amino acids) was immobilized on streptavidin (SA) chip giving a density of 800 RU (Response Units). The pre-incubated Mcl-1 protein (20 nM) with tested small-molecule inhibitors for at least 30 min was injected over the surfaces of the chip using assay buffer HBS-P (GE, #BR100368). Response units were measured at 15 s in the dissociation phase, and IC50 values were determined by nonlinear least-squares analysis using GraphPad Prism 6.0 software.

The subject of assay [4] is Eµ-myc lymphoma cells overexpressing Mcl-1. The experiment in a line: Eµ-myc lymphoma cell viability, flow cytometry. It counts as cell-based, mice. The conditions noted are these: increasing concentrations, 15 h. On the procedure: (§5) MEF cells, including wild-type, Bax/Bak double knockout, Bax−/− single knockout, and Bak−/− single knockout were tested and characterized (Supplementary Fig. S3). The cells were cultured in DMEM (Life Technologies), supplemented with 10% fetal bovine serum (FBS) (Thermo Scientific HyClone) and 1% Penicillin/streptomycin solution (Life Technologies). The retrovirally transduced lymphoma cells isolated from Eμ-myc transgenic mice were provided by Ricky W. Johnstone at the University of Melbourne, Melbourne, Australia and cultured as previously described[37],[65].
(§6) The Mcl-1, Bcl-2, and Bcl-xL retroviral transduced lymphoma Eμ-myc cells were seeded in 12-well plates at 0.5 × 10^6 cells/well. […] The cells were harvested and stained with violet LIVE/DEAD Fixable Dead Cell Stain Kit (Invitrogen) according to manufacturer’s protocol. The percentage of fluorescent positive cells was determined by flow cytometry and calculated using WinList 3.0.
In general terms: A flow cytometer gives signals particle by particle.

The subject of assay [5] is Eµ-myc lymphoma cells overexpressing Bcl-2. The experiment in a line: Eµ-myc lymphoma cell viability, flow cytometry. In kind it is cell-based, mice. The conditions noted are these: increasing concentrations. The method, then: as §5, §6
The subject of assay [6] is Eµ-myc lymphoma cells overexpressing Bcl-xL. The experiment in a line: Eµ-myc lymphoma cell viability, flow cytometry. It counts as cell-based, mice. The conditions noted are these: increasing concentrations, 15 h. On the procedure: as §5, §6
Assay [7] deals with Bax/Bak double knockout (DKO) MEFs. The experiment in a line: MEF cell death, propidium iodide flow cytometry. It counts as cell-based, mouse. The conditions noted are these: increasing concentrations, 15 h. The method, then: as §5
(§7) MEFs were seeded in 24-well plates at 0.5 × 10^5 cells/well, left to adhere for 5 hours and then treated for 15 hours with increasing concentrations of the compounds. The cells were harvested, washed with phosphate-buffered saline (PBS) and stained with 0.025 mg/ml propidium iodide (MP Biomedicals). The percentage of the propidium iodide positive population was determined by flow cytometry and calculated using WinList 3.0.

Assay [8] deals with Bax−/− single knockout MEFs. Description: MEF cell death, propidium iodide flow cytometry. The conditions noted are these: increasing concentrations, 15 h. It counts as cell-based, mouse. The method, then: as §5, §7
Assay [9] concerns Bak−/− single knockout MEFs. The experiment in a line: MEF cell death, propidium iodide flow cytometry. It counts as cell-based, mouse. The conditions noted are these: increasing concentrations, 15 h. The method, then:
as §5, §7

For assay [10], the system named is wild-type MEFs. Description: MEF cell death, propidium iodide flow cytometry. It counts as cell-based, mouse. The conditions noted are these: increasing concentrations, 15 h. On the procedure:
as §5, §7

The target of assay [11] is T2, Bfl-1 (Homo sapiens, UniProt Q16548).
T2 construct: Bf l-1 (residues 1-151); His tag (pHis-TEV vector) (N, cleaved yes); made in house; host or cells: E. coli BL21 (DE3)
T2 sequence (Q16548 1-151): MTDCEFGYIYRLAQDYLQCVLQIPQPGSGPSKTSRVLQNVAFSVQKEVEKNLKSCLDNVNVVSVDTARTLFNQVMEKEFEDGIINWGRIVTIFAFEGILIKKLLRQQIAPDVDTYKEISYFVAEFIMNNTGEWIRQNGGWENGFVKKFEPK
Description: FP-based competitive binding assay with FAM-Bid. The conditions noted are these: Bfl-1. The method, then: as §1, §2, §3, §4
His-tagged proteins containing human Mcl-1 (residues 171–323), the isoform 2 construct of the human Bcl-2 [Bcl2-2 construct for protein production starts with the Bcl2 sequence of 1-34 a a, followed by the Bcl-xL seq uence of 35-50 aa, and ends with the Bcl-2 sequenc e of 92-202aa.], Bcl-xL (Human Bcl-xL protein, which has an internal deletion for the 45 -85 amino acid residues and a C -terminal truncation for the amino acid residues 212-233), and Bf l-1 (residues 1-151), were expres sed from the pHis -TEV vector (a modified pET vector) in E. coli BL21 (DE3) cells. Cells were grown at 37 °C in 2×YT containing antibiotics to an OD600 density of 1.5, 1 and 0.8 for Mcl-1, Bcl-xL and Bcl-2 respectively. Protein expression wa s induced by 0 .4 mM IPTG at 20 °C overnight for all proteins except for Bf l-1 which was e xpressed at 3 7 °C for four hours . Cells were lysed in 20 mM HEPES pH 7.5, 200 mM NaCl, 0.1% βME with Leupeptin/Aprotinin (Mcl-1), 25mM Tris pH 8.5, 200mM NaCl (Bcl-2), 50mM Tris pH 7.5, 200 mM NaCl (Bcl-xL) and 50 mM Tris pH 8, 500 mM NaCl, 0. 1% βME with Leupeptin/Aprotinin (Bf l-1). All

The structures appear in SMILES notation.

T1 sequence (Q07820 171-323): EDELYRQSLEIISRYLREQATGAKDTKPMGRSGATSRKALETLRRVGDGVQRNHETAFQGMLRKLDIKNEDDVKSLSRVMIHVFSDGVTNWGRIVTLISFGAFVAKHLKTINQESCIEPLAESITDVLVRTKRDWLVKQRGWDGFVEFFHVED

For `Cc1ccc2nc(N3C(=O)C(O)=C(C(=O)c4cc5ccccc5o4)C3c3cccs3)sc2c1` (centres unmarked) [Compound 4], the IC50 in [1] is 2400 ± 1100 nM; in assay [2] it was 2400 nM; in assay [3] it was 4500 ± 300 nM.

`CC(C)c1cccc(NC(=O)CSc2nnc(-c3ccco3)c(-c3ccco3)n2)c1` [Compound 38]: the “killing of Eµ-myc cells overexpressing Mcl-1” value in [4] is given as “killing”. Besides, the “effect on Eµ-myc cells overexpressing Bcl-2” value in assay [5] was “selectivity”. In addition, in assay [1], the Ki was 600 ± 100 nM and the IC50 stood at 2600 ± 300 nM.

Turning to `Cc1c(-c2c(-c3ccc(F)o3)sc3ncnc(OC(Cc4ccccc4OCc4ccnn4CC(F)(F)F)C(=O)O)c23)ccc(OCCN2CCN(C)CC2)c1Cl` (centres unmarked) [Compound S63845, reference compound], the “killing of Eµ-myc cells overexpressing Mcl-1” value in [4] was “selectively killing”. Moreover, in assay [5], the “effect on Eµ-myc cells overexpressing Bcl-2” value is on record as “sparing”. For the same molecule, in assay [6], the “effect on Eµ-myc cells overexpressing Bcl-xL” value was “sparing”. Further, in assay [7], the “cell death in Bax/Bak DKO MEFs” value is “not”. Moreover, the “cell death in Bax−/− MEFs” value in assay [8] is listed as “not”. Moreover, the “cell death in Bak−/− MEFs” value in assay [9] was “not”. In addition, the “cell death in wild-type MEFs” value in assay [10] was “induces cell death”.

Turning to `CC(C)c1ccc(NC(=O)CSc2nnc(-c3ccco3)c(-c3ccco3)n2)cc1` [Compound 29], the “killing of Eµ-myc cells overexpressing Mcl-1” value in assay [4] was “killing”. Also, the “effect on Eµ-myc cells overexpressing Bcl-2” value in assay [5] is recorded as “selectivity”. In assay [1], the Ki is 500 ± 200 nM and the IC50 stood at 2300 ± 700 nM. In assay [3], the IC50 was determined as 11600 ± 1100 nM.

For `CCOc1ccc(C(=O)Nc2cc(NC(=O)c3ccc(OCC)c(Cl)c3)cc(C(=O)O)c2)cc1Cl` [Compound 3], the IC50 was 2500 ± 200 nM in assay [11], 9600 ± 2500 nM in assay [1], 14300 nM in [2] and 21300 ± 5400 nM in assay [3].

A word on the IC50: it is the concentration that inhibits the measured activity by half. By Ki is commonly meant the dissociation constant of the complex between target and ligand, obtained from inhibition or displacement.
